Data reported in publication PMC7996328, “Design, Synthesis, and Biological Evaluation of a Series of 5- and 7-Hydroxycoumarin Derivatives as 5-HT1A Serotonin Receptor Antagonists” (Pharmaceuticals, 2021).

Tests used:
5-HT1A receptor = target: T1, 5-HT1A receptor (Rattus norvegicus, UniProt P19327); assay: Antagonist activity for the 5-HT1A receptor, [35S]GTPγS assay in hippocampal homogenates; assay type: biochemical; conditions: 8-OH-DPAT 1.4 × 10^−7 M, mean ± SEM; for EC50: antagonistic activity
T1 construct: Hippocampal homogenates (15 μg/mL) were added to each tube as the 5-HT1A receptor source; from tissue; host or cells: rat hippocampus (male Sprague-Dawley), membrane homogenate
T1 sequence (P19327 1-422): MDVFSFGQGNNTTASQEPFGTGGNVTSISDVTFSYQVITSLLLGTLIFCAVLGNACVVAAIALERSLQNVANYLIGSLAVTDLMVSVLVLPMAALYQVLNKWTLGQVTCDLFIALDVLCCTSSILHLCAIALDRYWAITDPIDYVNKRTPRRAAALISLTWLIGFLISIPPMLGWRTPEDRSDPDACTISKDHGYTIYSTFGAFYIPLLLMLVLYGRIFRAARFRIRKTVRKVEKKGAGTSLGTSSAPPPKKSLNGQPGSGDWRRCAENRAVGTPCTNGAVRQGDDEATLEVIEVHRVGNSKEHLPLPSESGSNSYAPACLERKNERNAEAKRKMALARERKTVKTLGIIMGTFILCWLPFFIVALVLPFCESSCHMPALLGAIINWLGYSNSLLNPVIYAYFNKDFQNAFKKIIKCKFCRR
Experimental: Male Sprague–Dawley rats were decapitated, their brains removed, and placed on ice. Hippocampi were dissected and homogenized with a glass homogenizer in 30 vol. ice-cold TED buffer (50 mM Tris-HCl, 1 mM EDTA, 1mM dithiotheritol, pH 7.4). Next, the homogenate was centrifuged at 21,000× g for 30 min at 4 °C. […] The suspension was centrifuged again at 21,000× g for 30 min at 4 °C. The pellet was resuspended in 30 vol. TED buffer (pH 7.4) and the centrifugation step was repeated. The final pellet was suspended in 10 vol 50 mM Tris-HCl (pH 7.4) and stored at −80 °C until use.
Serial dilutions of the compounds tested (10^−10–10^−5 M) were incubated in triplicate with 0.8 nM [^35S]GTPγS in assay buffer (50 mM Tris-HCl, pH = 7.4, 1 mM EGTA, 3 mM MgCl2, 100 mM NaCl, 30 µM GDP) and 8-OH-DPAT (final concentration 1.4 × 10^−7 M) in the final assay volume of 250 µL. Hippocampal homogenates (15 μg/mL) were added to each tube as the 5-HT1A receptor source. […] Non-specific binding was determined with 10 µM of unlabeled GTPγS. […] Next, 96-well Unifilter® Plates (Perkin Elmer, Waltham, MA, USA) were presoaked for 1 h with 50 mM Tris-HCl (pH = 7.4) before harvesting. The reaction was terminated by vacuum filtration onto filter plates with the FilterMate Harvester® (Perkin Elmer, Waltham, MA, USA). The samples were then rapidly washed with 2 mL of 50 mM Tris-HCl (pH = 7.4) buffer. Filter plates were dried for 2 h at 50 °C. After drying, 45 µL of EcoScint-20 scintillant (Perkin Elmer) was added to every well. Radioactivity was counted in a Trilux MicroBeta^2 counter (Perkin Elmer). Data were analyzed with GraphPad Prism 5.0 software (GraphPad Software, San Diego, CA, USA, www.graphpad.com). Curves were fitted with a one-site non-linear regression model. Efficacy (Emax) and half maximal inhibitory concentration (IC50) were calculated from the Cheng–Prusoff equation and expressed as means ± SEM.

5-HT2A receptor = target: T2, 5-HT2A receptor (Rattus norvegicus, UniProt P14842); assay: 5-HT2A competition binding assay, [3H]ketanserin, frontal cortex homogenates; conditions: [3H]ketanserin 1 nM, read-out: Ki (nM ± SEM) (converted)
T2 construct: from tissue; host or cells: rat frontal cortex (male SD), membrane homogenate
Experimental: Male SD rats were decapitated and their brains removed and placed on ice. Frontal cortices were homogenized with a glass homogenizer in 30 vol ice-cold homogenization buffer (50 mM Tris-HCl. 1 mM EDTA. 5 mM MgCl2. pH 7.4). Next, the homogenate was centrifuged at 20,000× g for 15 min at 4 °C. […] The suspension was again centrifuged at 20,000× g for 15 min at 4 °C. The pellet was resuspended in 10 vol. 50 mM Tris-HCl (pH 7.4) and the centrifugation step was repeated. The final pellet was suspended in 10 vol 50 mM Tris-HCl (pH 7.4) and stored at −80 °C.
Non-specific binding was determined in the presence of 10 μM mianserin. After incubation, the reaction mixture was deposited onto UniFilter-96 GF/B plates with the aid of a FilterMate-96 Harvester. Filter plates were presoaked beforehand with 0.4% PEI for 1 h. Next, each filter well was washed with 1.75 mL of 50 mM Tris-HCl (pH 7.4) and left to dry on a heating block set to 50 °C for 2 h. Then 45 µL of Microscint-20 scintillation fluid was added to each filter well and left to equilibrate overnight. Filter-bound radioactivity was counted in a MicroBeta^2 Microplate Counter. Binding curves were fitted with one site non-linear regression. Affinity was presented as the inhibitory constant (pKi ± SEM and Ki ± SEM) from two or three separate experiments.

T2 sequence (P14842 whole entry): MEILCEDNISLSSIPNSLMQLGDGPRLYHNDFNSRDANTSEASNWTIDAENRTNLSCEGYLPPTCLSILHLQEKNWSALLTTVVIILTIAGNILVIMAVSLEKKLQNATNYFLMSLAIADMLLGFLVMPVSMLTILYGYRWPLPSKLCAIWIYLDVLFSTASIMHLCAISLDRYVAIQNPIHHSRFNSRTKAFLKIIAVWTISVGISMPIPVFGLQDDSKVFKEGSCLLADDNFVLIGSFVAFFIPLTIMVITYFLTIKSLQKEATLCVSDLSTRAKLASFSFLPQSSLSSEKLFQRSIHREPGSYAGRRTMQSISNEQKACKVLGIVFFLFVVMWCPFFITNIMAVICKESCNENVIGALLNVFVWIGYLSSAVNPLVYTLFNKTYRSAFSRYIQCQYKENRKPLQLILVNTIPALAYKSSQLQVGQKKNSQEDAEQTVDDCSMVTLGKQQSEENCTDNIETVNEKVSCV

CC(=O)c1c(C)cc2oc(=O)cc(C)c2c1OCCCCCN1CCN(c2cccc(Br)c2)CC1 [Compound 3g, 6-acetyl-5-(5-(4-(3-bromophenyl)piperazin-1-yl)pentyloxy)-4,7-dimethyl-2H-chromen-2-one]
IC50 (5-HT1A receptor): 1.29 µM | EC50 (5-HT1A receptor): 1280 ± 254 nM | Ki (5-HT2A receptor): 664 ± 154 nM | melting point: 100 to 102 °C

CC(=O)c1c(OCCN2CCN(c3cc(C)ccc3C)CC2)ccc2c(C)cc(=O)oc12 [Compound 6d, 8-acetyl-7-(2-[4-(2,5-dimethylphenyl)piperazin-1-yl]ethoxy)-4-methylchromen-2-one]
IC50 (5-HT1A receptor): 63.1 µM | EC50 (5-HT1A receptor): 59900 nM | Ki (5-HT2A receptor): 2050 ± 405 nM | melting point: 96 to 98 °C

CC(=O)c1c(OCCN2CCN(c3cccc(Cl)c3Cl)CC2)ccc2c(C)cc(=O)oc12 [Compound 6i, 8-acetyl-7-(2-[4-(2,3-dichlorophenyl)piperazin-1-yl]ethoxy)-4-methylchromen-2-one]
IC50 (5-HT1A receptor): 200 µM | EC50 (5-HT1A receptor): 204000 nM | Ki (5-HT2A receptor): 755 ± 178 nM | melting point: 159 to 161 °C

CC(=O)c1c(OCCN2CCN(c3ccccc3F)CC2)ccc2c(C)cc(=O)oc12 [Compound 6b, 8-acetyl-7-(2-[4-(2-fluorophenyl)piperazin-1-yl]ethoxy)-4-methylchromen-2-one]
IC50 (5-HT1A receptor): 50.1 µM | EC50 (5-HT1A receptor): 45300 nM | Ki (5-HT2A receptor): 1510 ± 344 nM | melting point: 137 to 139 °C

CC(=O)c1c(C)cc2oc(=O)cc(C)c2c1OCCCCCN1CCN(c2cccc(Cl)c2Cl)CC1 [Compound 3i, 6-acetyl-5-(5-(4-(2,3-dichlorophenyl)piperazin-1-yl)pentyloxy)-4,7-dimethyl-2H-chromen-2-one]
IC50 (5-HT1A receptor): 15.8 µM | EC50 (5-HT1A receptor): 15400 nM | Ki (5-HT2A receptor): 486 ± 102 nM | melting point: 129 to 130 °C

CC(=O)c1c(OCCBr)ccc2c(C)cc(=O)oc12 [Compound 6, 8-acetyl-7-(2-bromoethoxy)-4-methylchromen-2-one]
melting point: 140 to 142 °C

CC(=O)c1c(C)cc2oc(=O)cc(C)c2c1OCCBr [Compound 4, 6-acetyl-5-(2-bromoethoxy)-4,7-dimethyl-2H-chromen-2-one]
melting point: 168 to 169 °C

Cc1cc(OCCCCCBr)c2c(C)cc(=O)oc2c1 [Compound 1, 5-(5-bromopentyloxy)-4,7-dimethyl-2H-chromen-2-one]
melting point: 99 to 101 °C

CC(=O)c1c(C)cc2oc(=O)cc(C)c2c1OCCN1CCN(c2cc(C)ccc2C)CC1 [Compound 4d, 6-acetyl-5-(2-(4-(2,5-dimethylphenyl)piperazin-1-yl)ethoxy)-4,7-dimethyl-2H-chromen-2-one]
IC50 (5-HT1A receptor): 79.4 µM | EC50 (5-HT1A receptor): 74700 nM | Ki (5-HT2A receptor): 11900 nM

Cc1cc(OCCBr)c2c(C)cc(=O)oc2c1 [Compound 2, 5-(2-bromoethoxy)-4,7-dimethyl-2H-chromen-2-one]
melting point: 121 to 123 °C

CC(=O)c1c(C)cc2oc(=O)cc(C)c2c1OCCCCCBr [Compound 3, 6-acetyl-5-(5-bromopentyloxy)-4,7-dimethyl-2H-chromen-2-one]
melting point: 78 to 80 °C

CC(=O)c1c(C)cc2oc(=O)cc(C)c2c1OCCN1CCN(c2cc(C)cc(C)c2)CC1 [Compound 4h, 6-acetyl-5-(2-(4-(3,5-dimethylphenyl)piperazin-1-yl)ethoxy)-4,7-dimethyl-2H-chromen-2-one]
IC50 (5-HT1A receptor): 39.8 µM | EC50 (5-HT1A receptor): 26800 nM | Ki (5-HT2A receptor): 1920 ± 382 nM

COc1ccccc1N1CCN(CCCCCOc2c(C(C)=O)c(C)cc3oc(=O)cc(C)c23)CC1 [Compound 3a, 6-acetyl-5-(5-(4-(2-methoxyphenyl)piperazin-1-yl)pentyloxy)-4,7-dimethyl-2H-chromen-2-one]
IC50 (5-HT1A receptor): 0.0398 µM | EC50 (5-HT1A receptor): 39.4 ± 3.63 nM | Ki (5-HT2A receptor): 641 ± 128 nM

COc1cccc(N2CCN(CCCCCOc3ccc4c(C)cc(=O)oc4c3C(C)=O)CC2)c1 [Compound 5c, 8-acetyl-7-(5-[4-(3-methoxyphenyl)piperazin-1-yl]penthoxy)-4-methylchromen-2-one]
IC50 (5-HT1A receptor): 25.1 µM | EC50 (5-HT1A receptor): 22900 nM | Ki (5-HT2A receptor): 144 ± 38 nM
